Legend:
MNK1 = experiment: Apta-western with biotin-labeled aptamer; assay type: binding
Text: FIGS. 6A-6C. Characterization of the interaction of aptamer apMNKQ2 with MNK1 by means of Apta-western. Detection of MNK1a and MNK1b, as well as of the two GST-bound variants MNK1aΔ77 and MNK1ΔCt, with biotin-labeled aptamer apMNKQ2 in electrophoresis (12%) in denaturing conditions (FIG. 6A) and in native conditions (without SDS or β-mercaptoethanol) (FIG. 6B). Quantification of protein levels in relation to MNK1a (*p<0.05 with respect to 1) (FIG. 6C).
In the apta-western assays, the proteins were resolved in polyacrylamide gels in native or denaturing conditions, transferred to PVDF membranes, and incubated with aptamers and streptavidin-peroxidase as indicated above after blocking with 5% PBS-BSA. Finally, the signal was visualized with the chemiluminescence developing system (Clarity Western ECL, BioRad, USA).
On the other hand, apta-western assays were carried out to confirm the affinity of the aptamer apMNKQ2 for proteins MNK1a and MNK1b. To that end, the four constructs used in FIG. 5A were analyzed by electrophoresis, blot, and apta detection. […] This may be due to the fact that the site the aptamer recognizes may not be accessible in all the proteins when they are structured and said site may be exposed as the proteins denature. […] The result is shown in FIG. 6B and quantified in FIG. 6C.

4T1 cells = experiment: MTT activity assay in 4T1 cells; assay type: cell-based, mouse; conditions: 4T1 cells, 0, 250, 500 and 1000 nM, 48 hours
Description: FIG. 21A-21E. In vivo efficacy of apMNKQ2 in a mouse metastatic model with an orthotopic xenograft of 4T1 cells. (A) Effect of apMNKQ2 aptamer on the proliferation of 4T1 cells (mouse breast tumor line). 4T1 cells were seeded in p96 at a density of 1.5×10^3 cells/well. […] The graph (FIG. 21A) represents the means±SEM of 3 independent experiments. (B) Effect of apMNKQ2 aptamer on migration and invasion of 4T1 cells. Cells were seeded in p6 at a density of 2×10^5 cells/well and transfected with 500 nM apMNKQ2 at 24 hours. At 6 hours they were deprived of serum, and after 24 hours they were collected and re-seeded (4×10^4 cells/well) in a transwell […]. At 24 hours (migration) or 48 h (invasion), the transwell membranes were stained with Hoechst and the cells that had passed through the fluorescence microscopy were quantified. Values (FIG. 21B) represent the mean±SEM of 2-3 independent experiments. In vivo efficacy of apMNKQ2 in a mouse metastatic model with an orthotopic xenograft of 4T1 cells. […] The number of metastases is analyzed by the reverse staining method (with Chinese ink) and the metastases grouped according to their size in four groups (0.5, 1, 2 and >2). […]
MTT activity. […] After 48 hours, the reduction of MTT was determined by means of spectrophotometry in Infinite F200 (TECAN, Switzerland) at 540 nm.

eIF4E = experiment: Western blot of phosphorylation, combined therapy study; assay type: cell-based, human; conditions: MDA-MB-231 and MCF7 cells, 24 hours
Description: (§1) FIG. 22A & 22B. Combined therapy studies of apMNKQ2 and everolimus. […] The different antibodies used are indicated.
(§2) Seventy-two hours after treatment, MTT activity was measured.

ribosomal protein S6 = experiment: as above; assay type: cell-based, human; conditions: MDA-MB-231 and MCF7 cells, 24 hours
Description: as §1, §2

AKT = experiment: as above; assay type: cell-based, human; conditions: MDA-MB-231 and MCF7 cells, 24 hours
Description: as §1, §2

5′TGGGGTGGGCGGGCGGGGGTGGGGGTGGT-3′ (DNA, backbone and methylation of C not given here; further chemistry not fully specified) [apMNKQ2]
recognition of MNK1a, MNK1b, MNK1aΔ77 and MNK1ΔCt (apta-western) (MNK1; denaturing conditions): capable of recognizing and binding to the four isoforms of the protein in a similar manner | recognition of MNK1a, MNK1b, MNK1aΔ77 and MNK1ΔCt (apta-western) (MNK1; native conditions (without SDS or β-mercaptoethanol)): capable of significantly differentiating MNK1b from other isoforms | cell proliferation as measured by MTT activity (4T1 cells): does not affect cell proliferation | phosphorylation of eIF4E (eIF4E): no effect | phosphorylation of ribosomal protein S6 (dependent on mTOR activity) (ribosomal protein S6): also affects this phosphorylation | phosphorylation of AKT (AKT): no effect
